# Assay results reported in PubChem BioAssay AID651598 (Sanford-Burnham Center for Chemical Genomics, 2012).
# Calls of active or inactive are those of the source.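 Rule for the calls: active = CXCR6 IC50 under 10 µM and IC50 at the unrelated APJ receptor at least five times higher; inactive = the rest.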
# Legend:
# [1] = target: Apelin receptor (Homo sapiens) (UniProt P35414); assay: APJ beta-arrestin recruitment blockade alongside CXCR6 – cell-based, DiscoveRx, panel, CHO-K1, counter-screen for CXCR6 antagonist project, SAR follow-up (AID 651598); details: CHO-K1 PathHunter beta-arrestin luminescence, antagonist mode; APJ; mean of runs
# [2] = target: C-X-C chemokine receptor type 6 (Homo sapiens) (UniProt O00574); assay: as above; details: CHO-K1 PathHunter beta-arrestin luminescence, antagonist mode; CXCR6; mean of runs
# Sequence of C-X-C chemokine receptor type 6 (Homo sapiens) (O00574 whole entry, looked up): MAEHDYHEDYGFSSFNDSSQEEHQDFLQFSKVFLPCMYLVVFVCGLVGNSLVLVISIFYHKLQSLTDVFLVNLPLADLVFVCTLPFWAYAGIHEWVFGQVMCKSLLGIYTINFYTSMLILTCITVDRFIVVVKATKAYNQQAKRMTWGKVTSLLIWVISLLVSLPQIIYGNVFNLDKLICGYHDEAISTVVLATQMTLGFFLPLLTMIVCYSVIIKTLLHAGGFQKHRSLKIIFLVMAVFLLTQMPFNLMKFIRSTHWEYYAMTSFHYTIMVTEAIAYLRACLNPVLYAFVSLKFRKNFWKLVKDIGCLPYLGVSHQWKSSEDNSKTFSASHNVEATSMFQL
# Sequence of Apelin receptor (Homo sapiens) (P35414 whole entry, looked up): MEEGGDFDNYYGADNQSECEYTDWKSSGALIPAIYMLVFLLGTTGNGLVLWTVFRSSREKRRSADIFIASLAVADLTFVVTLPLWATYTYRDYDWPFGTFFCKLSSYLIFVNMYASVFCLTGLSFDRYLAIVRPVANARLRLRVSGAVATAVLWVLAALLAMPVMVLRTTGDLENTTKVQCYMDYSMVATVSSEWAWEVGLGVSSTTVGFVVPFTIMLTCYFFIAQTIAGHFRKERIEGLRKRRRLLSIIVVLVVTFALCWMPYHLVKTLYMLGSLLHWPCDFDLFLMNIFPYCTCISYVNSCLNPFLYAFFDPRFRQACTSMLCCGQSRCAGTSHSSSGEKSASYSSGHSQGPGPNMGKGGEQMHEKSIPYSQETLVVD
SMILES,IC50 [1],IC50 [2]
COc1cc(C(=O)NC2CC3CCCC(C2)N3CC(=O)Nc2ccccc2)cc(OC)c1OC (centres undefined),> 80 µM (inactive),
COc1cc(C(=O)NC2CCN(CC(=O)Nc3ccccc3)CC2)cc(OC)c1OC,> 80 µM (inactive),> 80 µM (inactive)
COc1cc(C(=O)NC2CC3CCC(C2)N3CC(=O)Nc2ccccc2)cc(OC)c1OC (centres undefined),> 80 µM (inactive),
